Source: patent publication US20050032873A1, “3-Amino chroman and 2-amino tetralin derivatives” (Wyeth, priority 2003, published 2005)
Where two headings read alike, the source gives them in different places.

Tests used:
[1] = target: T1, 5-HT1A receptor (Homo sapiens, UniProt P08908); assay: 5-HT1A receptor affinity: displacement of [3H] 8-OH-DPAT; type: binding; parameters: expressed in transfected cells; settings: displacement of [3H] 8-OH-DPAT; CHO cells stably transfected with human 5-HT1A receptors; read-out: 5-HT1A Receptor Affinity Ki
T1 sequence (P08908 1-422): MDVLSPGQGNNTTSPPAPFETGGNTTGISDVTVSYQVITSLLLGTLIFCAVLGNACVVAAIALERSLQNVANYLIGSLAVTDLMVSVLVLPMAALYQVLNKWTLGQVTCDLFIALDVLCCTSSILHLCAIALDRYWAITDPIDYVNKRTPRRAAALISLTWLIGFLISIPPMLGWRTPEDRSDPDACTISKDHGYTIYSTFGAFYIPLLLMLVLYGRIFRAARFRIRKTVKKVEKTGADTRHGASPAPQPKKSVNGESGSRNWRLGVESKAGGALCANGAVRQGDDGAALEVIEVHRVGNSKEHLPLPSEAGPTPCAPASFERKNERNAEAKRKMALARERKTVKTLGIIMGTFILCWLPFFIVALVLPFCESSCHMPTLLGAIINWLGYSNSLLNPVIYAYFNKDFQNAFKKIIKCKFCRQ

[2] = target: T2, serotonin transporter (Rattus norvegicus, UniProt P31652); assay: 5-HT transporter affinity: displacement of 3H-paroxetine from male rat cortical membranes; type: binding; settings: displacement of 3H-paroxetine; male rat cortical membranes; read-out: 5-HT Transporter Affinity Ki
T2 construct: displace ^3H-paroxetine from male rat cortical membranes; from tissue; host or cells: male rat cortical membranes

[3] = target: T1, 5-HT1A receptor; assay: cAMP accumulation assay, 5-HT1A function; type: cell-based; settings: for IC50: cells marked IC50 (antagonist), read-out: 5-HT1A Function cAMP IC50; for 5-HT1A Function cAMP (Emax) / Emax: in brackets after EC50 or IC50; for EC50: cells marked EC50 (agonist); for Emax: read-out: 5-HT1A Function cAMP (Emax)
[4] = target: T3, cloned human 5-HT1A receptors (Homo sapiens, UniProt P08908); assay: 35S-GTPγS binding assay, 5-HT1A function; type: biochemical; settings: for IC50: antagonist potency, reversal of 8-OH-DPAT, read-out: 5-HT1A Function GTPγS IC50; for EC50: agonist potency
T3 construct: expressed in transfected cells
T3 sequence (P08908 1-422): T1 sequence (P08908 1-422)
Excerpt: The agonist or antagonist activity at 5-HT1A receptors was established by using two different assays. […] Agonists produce an increase in binding whereas antagonists produce no increase but rather reverse the effects of the standard agonist 8-OH-DPAT. The test compound's maximum stimulatory effect is represented as the Emax, while its potency is defined by the EC50. The test compound's maximum inhibitory effect is represented as the Imax, while its potency is defined by the IC50. The second assay measured cAMP accumulation upon binding of the ligand to the 5-HT1A receptor. […] The test compound's maximum stimulatory or inhibitory effect is represented as the Emax while its potency is defined by either IC50 for an antagonist or EC50 for an agonist. [^3H]-8-OH-DPAT was used to determine maximum agonist or antagonist response in both functional assays.

[5] = maximum inhibitory effect, in brackets after IC50
[6] = maximum inhibitory effect, in brackets after IC50, read-out: 5-HT1A Function GTPγS (Imax)

T2 sequence (P31652 whole entry): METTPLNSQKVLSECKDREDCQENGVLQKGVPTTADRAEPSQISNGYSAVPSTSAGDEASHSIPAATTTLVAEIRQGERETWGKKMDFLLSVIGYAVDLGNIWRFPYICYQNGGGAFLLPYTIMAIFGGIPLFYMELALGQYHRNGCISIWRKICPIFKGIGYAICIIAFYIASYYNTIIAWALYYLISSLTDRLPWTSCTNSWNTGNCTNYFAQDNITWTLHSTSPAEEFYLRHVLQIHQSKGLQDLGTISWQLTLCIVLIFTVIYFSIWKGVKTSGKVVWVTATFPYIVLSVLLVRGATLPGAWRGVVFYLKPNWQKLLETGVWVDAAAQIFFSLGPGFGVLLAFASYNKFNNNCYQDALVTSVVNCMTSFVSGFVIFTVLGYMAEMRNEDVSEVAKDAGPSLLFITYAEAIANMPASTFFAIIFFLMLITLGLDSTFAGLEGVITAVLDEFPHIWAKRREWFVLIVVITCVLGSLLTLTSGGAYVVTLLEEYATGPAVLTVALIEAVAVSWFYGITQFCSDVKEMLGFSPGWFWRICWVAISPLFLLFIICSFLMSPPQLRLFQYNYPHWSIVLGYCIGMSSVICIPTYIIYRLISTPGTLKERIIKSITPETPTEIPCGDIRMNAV

SMILES | Ki [1] [nM] | Ki [2] [nM] | IC50 [3] [nM] | 5-HT1A Function cAMP (Emax) [3] [%] | IC50 [4] [nM] | 5-HT1A Function GTPγS (Imax) [4, 5] [%] | EC50 [3] [nM] | Emax [3] [%] | Emax [4, 6] [%] | EC50 [4] [nM] | 5-HT1A Function GTPγS (Emax) ([4]; maximum stimulatory effect, in brackets after EC50) [%] | Emax ([4]; maximum stimulatory effect, in brackets after EC50, read-out: 5-HT1A Function GTPγS (Emax)) [%]
CCN(CC1CCc2[nH]c3ccc(F)cc3c2C1)[C@H]1COc2c(F)ccc(C(N)=O)c2C1 (single isomer, unassigned; (+)) [Compound 176b] | 24.6 | 165 | 669 | 0 | 827 | 88 |  |  |  |  |  | 
CCCN(CC1CCc2[nH]c3ccc(F)cc3c2C1)[C@H]1COc2c(F)ccc(C(N)=O)c2C1 (single isomer, unassigned; (+)) [Compound 177b] | 7.34 | 181 | 36.2 | 0 | 181 | 74 |  |  |  |  |  | 
NC(=O)c1ccc(F)c2c1C[C@@H](N(CC1CC1)CC1CCc3[nH]c4ccc(F)cc4c3C1)CO2 (single isomer, unassigned; (+)) [Compound 178b] | 9.48 | 116 | 224 | 0 | 611 | 99 |  |  |  |  |  | 
CCCN(CCCc1c[nH]c2ccc(F)cc12)C1COc2c(F)ccc(C(N)=O)c2C1 (single isomer, unassigned; (-)) [Compound 2a, (−)-8-fluoro-3-[[3-(5-fluoro-1H-indol-3-yl)propyl](propyl)amino]-3,4-dihydro-2H-chromene-5-carboxamide] | 1.48 | 8.5 |  |  | 405 |  | 18.5 | 77.5 | 77.4 |  |  | 
CCN(CCCc1c[nH]c2ccc(F)cc12)C1COc2c(F)ccc(C(N)=O)c2C1 (single isomer, unassigned; (-)) [Compound 3a, (−)-3-{ethyl[3-(5-fluoro-1H-indol-3-yl)propyl]amino}-8-fluoro-3,4-dihydro-2H-chromene-5-carboxamide] | 35.1 | 5 | 135 | 0 | 1300 | 79 |  |  |  |  |  | 
NC(=O)c1ccc(F)c2c1CC(N(CCCc1c[nH]c3c(F)cc(F)cc13)C1CCC1)CO2 (single isomer, unassigned; (-)) [Compound 9a, (−)-3-{cyclobutyl[3-(5,7-difluoro-1H-indol-3-yl)propyl]amino}-8-fluorochromane-5-carboxamide] | 1.73 | 3.34 | 61.1 |  | 207 | 100 |  | 0 |  |  |  | 
CCCN(C(C)CCCc1c[nH]c2ccc(F)cc12)C1COc2c(F)ccc(C(N)=O)c2C1 (single isomer, unassigned; (-)) [Compound 14b, (−)-8-fluoro-3-[[4-(5-fluoro-1H-indol-3-yl)-1-methylbutyl](propyl)amino]chromane-5-carboxamide] | 1.88 | 9.5 | 110 | 0 | 477 | 100 |  |  |  |  |  | 
CC(CCc1c[nH]c2ccc(F)cc12)N(CC1CC1)C1COc2c(F)ccc(C(N)=O)c2C1 (single isomer, unassigned; (-)) [Compound 15a, (−)-3-{(cyclopropylmethyl)[3-(5-fluoro-1H-indol-3-yl)-1-methylpropyl]amino}-8-fluorochromane-5-carboxamide] | 1.88 | 10.2 | 72.7 | 0 | 333 |  |  |  | 100 |  |  | 
CCN(C(C)CCc1c[nH]c2ccc(F)cc12)C1COc2c(F)ccc(C(N)=O)c2C1 (single isomer, unassigned; (-)) [Compound 16a, (−)-3-{ethyl[3-(5-fluoro-1H-indol-3-yl)-1-methylpropyl]amino}-8-fluorochromane-5-carboxamide] | 37.3 | 0.9 | 187 | 0 | 3000 |  |  |  | 100 |  |  | 
CCCN(CCCc1c[nH]c2ccc(F)cc12)C1CCc2c(F)ccc(OC)c2C1 (single isomer, unassigned; (-)) [Compound 51b, (−)-5-fluoro-N-[3-(5-fluoro-1H-indol-3-yl)propyl]-8-methoxy-N-propyl-1,2,3,4-tetrahydro-2-naphthalenamine] | 14.2 | 1.12 | 50 | 0 | 48 |  |  |  | 46 |  |  | 
NC(=O)c1cccc2c1CC(N(CCCc1c[nH]c3ccc(F)cc13)C1CCC1)CO2 (single isomer, unassigned; (-)) [Compound 134a, (−)-3-{cyclobutyl[3-(5-fluoro-1H-indol-3-yl)propyl]amino}chromane-5-carboxamide] | 0.66 | 2.75 |  | 89 | 191 |  | 3.87 |  | 60 | 66 | 30 | 
NC(=O)c1ccc(F)c2c1CC(N(CC1CCc3[nH]c4ccc(F)cc4c3C1)C1CCC1)CO2 (single isomer, unassigned; (-)) [Compound 174d, (−)-3-{cyclobutyl[(6-fluoro-2,3,4,9-tetrahydro-1H-carbazol-3-yl)methyl]amino}-8-fluorochromane-5-carboxamide] | 73.3 | 322 | 304 | 0 | 4750 | 100 |  |  |  |  |  | 
NC(=O)c1ccc(F)c2c1C[C@@H](NCC1CCc3[nH]c4ccc(F)cc4c3C1)CO2 (single isomer, unassigned; (-)) [Compound 175a] | 38 | 20.9 | 1480 |  | 429 | 100 |  | 0 |  |  |  | 
CCN(CC1CCc2[nH]c3ccc(F)cc3c2C1)[C@H]1COc2c(F)ccc(C(N)=O)c2C1 (single isomer, unassigned; (-)) [Compound 176a] | 392 | 619 | 878 |  | 4260 |  |  | 0 | 92 |  |  | 
CCCN(CC1CCc2[nH]c3ccc(F)cc3c2C1)[C@H]1COc2c(F)ccc(C(N)=O)c2C1 (single isomer, unassigned; (-)) [Compound 177a] | 60.3 | 5240 | 832 |  | 2950 | 100 |  | 0 |  |  |  | 
NC(=O)c1ccc(F)c2c1C[C@@H](N(CC1CC1)CC1CCc3[nH]c4ccc(F)cc4c3C1)CO2 (single isomer, unassigned; (-)) [Compound 178a] | 117 | 347 | 1260 |  | 8400 |  |  | 0 | 100 |  |  | 
NC(=O)c1ccc(F)c2c1C[C@@H](NCC1CCc3c([nH]c4ccc(F)cc34)C1)CO2 (single isomer, unassigned; (-)) [Compound 179b] | 24.2 | 85.5 | 956 |  | 6040 | 100 |  | 0 |  |  |  | 
NC(=O)c1ccc(F)c2c1CC(NCCCc1c[nH]c3ccc(F)cc13)CO2 (centres unmarked) [Compound 1, 8-fluoro-3-{[3-(5-fluoro-1H-indol-3-yl)propyl]amino}chromane-5-carboxamide] | 212 | 7 |  |  |  |  | 229 | 79.5 |  | 5000 |  | 100
